Results taken from ChEMBL document CHEMBL5380860, “Design, Synthesis, and Antitumor Activity of Potent and Selective EGFR L858R/T790M Inhibitors and Identification of a Combination Therapy to Overcome Acquired Resistance in Models of Non-small-cell Lung Cancer” (J Med Chem, 2023).
Active and inactive are the calls of the source. The rule behind the calls is not given here.

Experiments:
NCI-H1975 [1] = assay: Induction of apoptosis in human NCI-H1975 cells assessed as increase in caspase-3/7 activity at 0.1 to 10 uM incubated for 24 hrs by Caspase-Glo reagent based luminescence analysis; assay type: functional, cell-based; conditions: dose 0.1-10 µM
[2] = target: T1, Epidermal growth factor receptor (Homo sapiens, UniProt P00533); assay: Inhibition of wild type EGFR in human A-431 cells assessed as inhibition of EGF-induced EGFR phosphorylation at Tyr1068 residue at 0.1 to 10 uM pretreated with compound for 4 hrs followed by incubation with EGF for 10 mins by western blot analysis; assay type: toxicity, cell-based; conditions: a-431, 4.167 h, dose 0.1-10 µM, time 250 min
A-431 = assay: Induction of apoptosis in human A-431 cells assessed as increase in caspase-3/7 activity at 0.1 to 10 uM incubated for 24 hrs by Caspase-Glo reagent based luminescence analysis; assay type: toxicity, cell-based; conditions: a-431, 24 h, dose 0.1-10 µM
[3] = Cytotoxicity against human A-431 cells harboring wild type EGFR assessed as reduction in cell viability measured after 72 hrs by MTT assay; assay type: toxicity, cell-based
wild type EGFR = wild type EGFR (Homo sapiens, UniProt P00533); assay: Inhibition of human wild type partial length EGFR (R669 to V1011 residues) expressed in bacterial expression system assessed as residual activity at 1 uM by KINOMEscan analysis; assay type: toxicity; conditions: read-out: Activity
[4] = tested on: Epidermal growth factor receptor (Homo sapiens), P00533 [UNDEFINED MUTATION]; assay: Inhibition of human EGFR exon del19 mutant assessed as residual activity at 1 uM by KINOMEscan analysis
Mus musculus [5] = assay: In vivo inhibition of EGFR L858R/T790M mutant in ip dosed NCI-H1975 cells xenografted BALB/c mouse assessed as inhibition of EGFR phosphorylation at Tyr1068 residue in tumor by immunoblot analysis; assay type: functional, organism-based; conditions: dose 5-20 mg/kg/day
[6] = (§1) Toxicity in BALB/c mouse xenografted with N-(3-((6-Fluoro-2-((4-(4-methylpiperazin-1-yl)phenyl)amino)quinazolin-4-yl)amino)phenyl)acrylamide-resistant human NCI-H1975 cells assessed as changes in heart morphological changes at 20 mg/kg/day, ip in presence of ACK1 inhibitor, dasatinib by hematoxylin-eosin staining based analysis; assay type: organism-based; conditions: in vivo
[7] = tested on: Epidermal growth factor receptor (Homo sapiens), P00533 [L858R,T790M]; assay: Covalent binding affinity to EGFR L858R/T790M mutant (unknown origin) assessed as enzyme-compound complex formation at protein to compound concentration ratio of 1:4 incubated for 1 hr by LC-MS analysis
HCC827 [8] = assay: Induction of apoptosis in human HCC827 cells assessed as increase in caspase-3/7 activity at 0.1 to 10 uM incubated for 24 hrs by Caspase-Glo reagent based luminescence analysis; assay type: functional, cell-based; conditions: dose 0.1-10 µM
[9] = tested on: Epidermal growth factor receptor (Homo sapiens), P00533 [L858R,T790M]; assay: Inhibition of EGFR L858R/T790M mutant in human NCI-H1975 cells assessed as inhibition of EGF-induced EGFR phosphorylation at Tyr1068 residue at 1 uM pretreated with compound for 4 hrs followed by incubation with EGF for 10 mins by western blot analysis; assay type: cell-based; conditions: time 250.0 min
[10] = tested on: Epidermal growth factor receptor (Homo sapiens), P00533 [UNDEFINED MUTATION]; assay: Inhibition of EGFR exon del19 mutant in human HCC827 cells assessed as inhibition of EGF-induced EGFR phosphorylation at Tyr1068 residue at 1 uM pretreated with compound for 4 hrs followed by incubation with EGF for 10 mins by western blot analysis; assay type: cell-based; conditions: time 250.0 min
NCI-H1975 [11] = assay: Synergistic antiproliferative activity against N-(3-((6-Fluoro-2-((4-(4-methylpiperazin-1-yl)phenyl)amino)quinazolin-4-yl)amino)phenyl)acrylamide-resistant human NCI-H1975 cells assessed as combination index measured after 72 hrs in presence of ACK1 inhibitor, AIM100 by MTT assay; assay type: functional
HCC827 [12] = assay: Inhibition of clonogenicity in human HCC827 cells assessed as inhibition of colony formation incubated for 14 days by crystal violet staining based analysis; assay type: functional, cell-based; conditions: dose 0.1-10 µM, time 14.0 day
[13] = Selectivity ratio of IC50 for cytotoxicity against human A-431 cells harboring wild type EGFR to IC50 for antiproliferative activity against human NCI-H1975 cells harboring EGFR L858R/T790M mutant; assay type: toxicity, cell-based; conditions: read-out: Ratio IC50
[14] = Toxicity in BALB/c mouse xenografted with N-(3-((6-Fluoro-2-((4-(4-methylpiperazin-1-yl)phenyl)amino)quinazolin-4-yl)amino)phenyl)acrylamide-resistant human NCI-H1975 cells assessed as effect on body weight at 20 mg/kg/day, ip in presence of ACK1 inhibitor, dasatinib; assay type: organism-based; conditions: in vivo
[15] = GSH reactivity in PBS buffer assessed as half life by HPLC analysis; assay type: ADME; conditions: PBS buffer with GSH
[16] = tested on: Epidermal growth factor receptor (Homo sapiens), P00533 [L858R,T790M]; assay: Inhibition of EGFR L858R/T790M mutant in osimertinib-resistant human NCI-H1975 cells assessed as inhibition of EGF-induced Akt phosphorylation at Ser473 residue pretreated with compound for 4 hrs followed by incubation with EGF for 10 mins by western blot analysis; assay type: cell-based; conditions: time 250.0 min
NCI-H1975 [17] = assay: Inhibition of cell migration in human NCI-H1975 cells at 0.1 uM incubated for 48 hrs by scratch wound healing assay; assay type: functional, cell-based
HCC827 [18] = assay: Induction of apoptosis in human HCC827 cells assessed as induction of caspase-3 cleavage pretreated with compound for 4 hrs followed by incubation with EGF for 10 mins by western blot analysis; assay type: functional, cell-based; conditions: dose 0.1-10 µM, time 250.0 min
[19] = AUC (0 to infinity) in Sprague-Dawley rat at 1 mg/kg, iv by LC-MS analysis; assay type: ADME, organism-based; design: dose 1 mg/kg, route iv; conditions: in vivo
[20] = Toxicity in BALB/c mouse xenografted with human NCI-H1975 cells assessed as change in lung morphological changes at 5 to 20 mg/kg/day, ip by hematoxylin-eosin staining based analysis; assay type: organism-based; conditions: in vivo, dose 5-20 mg/kg/day
NCI-H1975 [21] = assay: Antiproliferative activity against human NCI-H1975 cells harboring EGFR L858R/T790M mutant assessed as reduction in cell viability measured after 72 hrs by MTT assay; assay type: functional, cell-based; conditions: NCI-H1975, 72 h
[22] = target: T1, Epidermal growth factor receptor; assay: Inhibition of human wild type partial length EGFR (R669 to V1011 residues) expressed in bacterial expression system by KINOMEscan analysis; assay type: toxicity
[23] = as §1, with “kidney” for “heart”; assay type: organism-based; conditions: in vivo
A549 = assay: Inhibition of cell migration in human A549 cells at 10 uM incubated for 48 hrs by scratch wound healing assay; assay type: toxicity, cell-based; conditions: a549, 48 h
NCI-H1975 [24] = assay: Induction of apoptosis in human NCI-H1975 cells assessed as induction of PARP cleavage pretreated with compound for 4 hrs followed by incubation with EGF for 10 mins by western blot analysis; assay type: functional, cell-based; conditions: dose 0.1-10 µM, time 250.0 min
[25] = Toxicity in BALB/c mouse xenografted with human NCI-H1975 cells assessed as change in spleen morphological changes at 5 to 20 mg/kg/day, ip by hematoxylin-eosin staining based analysis; assay type: organism-based; conditions: in vivo, dose 5-20 mg/kg/day
Mus musculus [26] = species on record: Mus musculus; conditions: BALB/c, dose 10.0 mg/kg/day, route po

Q: Which Activity (NCI-H1975 [1]) does the source give for C=CC(=O)Nc1cccc(Nc2nc(Nc3ccc(N4CCN(C)CC4)cc3)nc3ccc(F)cc23)c1 here?
A: Active

Q: And the “inhibition (INH)” value [2]?
A: Not Active

Q: And the Activity (A-431)?
A: Non-Toxic

Q: What about the IC50 at 72 h [3] of the same compound?
A: 2490 nM

Q: And the activity at 1 µM (wild type EGFR)?
A: 96%

Q: And the Activity [4]?
A: 0%

Q: What about the inhibition (Mus musculus [5]) of the same compound?
A: Dose-Dependent Effect

Q: And the Activity [6]?
A: Non-Toxic

Q: And the Activity [7]?
A: Active

Q: And the Activity (HCC827 [8])?
A: Active

Q: And the inhibition [9]?
A: Active

Q: And the inhibition [10]?
A: Active

Q: What about the CI (NCI-H1975 [11]) of the same compound?
A: <2

Q: What about the inhibition (HCC827 [12]) of the same compound?
A: Dose-Dependent Effect

Q: What about the selectivity ratio [13] of the same compound?
A: 130

Q: What about the Activity [14] of the same compound?
A: Non-Toxic

Q: What about the half-life [15] of the same compound?
A: 72.9 h

Q: What about the inhibition [16] of the same compound?
A: inactive

Q: And the inhibition (NCI-H1975 [17])?
A: Active

Q: What about the Activity (HCC827 [18]) of the same compound?
A: Dose-Dependent Effect

Q: What about the AUC(0-inf) [19] of the same compound?
A: 1050 ng·h/mL

Q: What about the Activity [20] of the same compound?
A: Non-Toxic

Q: What about the IC50 (NCI-H1975 [21]) of the same compound?
A: 19 nM

Q: And the IC50 [22]?
A: 1290 nM

Q: What about the Activity [23] of the same compound?
A: Non-Toxic

Q: What about the Activity (A549) of the same compound?
A: Non-Toxic

Q: What about the Activity (NCI-H1975 [24]) of the same compound?
A: Dose-Dependent Effect

Q: And the Activity [25]?
A: Non-Toxic

Q: Which inhibition (Mus musculus [26]) does the source give for C=CC(=O)Nc1cc(Nc2nccc(-c3cn(C)c4ccccc34)n2)c(OC)cc1N(C)CCN(C)C [OSIMERTINIB] here?
A: Active
